Consider one compound from patent US20250381117A1 (MARY KAY INC., priority 2024, published 2025).

Data set [1] can be described thus: Solubility Analyses (Example 1): dissolution in water. Type of data set: physicochemical.
For data set [2] the following is noted: at 25° C., cited from earlier work.

Like-named read-outs stand apart in the source and are kept apart here.

Consider `COc1ccc2[nH]cc(CCNC(C)=O)c2c1` [melatonin], for which the values for the dissolution in water result in data set [1] (melatonin 1.2% (w/w) in the absence of caffeine) and in data set [1] (melatonin 2% (w/w) in the absence of caffeine) were “did not completely dissolve” and “did not dissolve completely”, respectively. The solubility in water entry in data set [2] is recorded as “approximately 0.01 g/100 mL”; in data set [2] (same value given in percent) it was “approximately 0.01%”.
